Results as given in US8785429B2, “Dihydropyrrolonaphthyridinone compounds as inhibitors of JAK” (Takeda Pharmaceutical Company Limited, priority 2009, dated 2014).

Key:
[1] = molecular target: T1, JAK3 (Homo sapiens, UniProt P52333); test: Assay for JAK3 Inhibition (phosphorylation of FAM-labeled substrate, Caliper LC-3000); format: biochemical; conditions: −log10(IC50), IC50 is the molar concentration at 50% inhibition; read-out: JAK3 pIC50 (converted)
T1 construct: purchased Invitrogen
T1 sequence (P52333 1-1124): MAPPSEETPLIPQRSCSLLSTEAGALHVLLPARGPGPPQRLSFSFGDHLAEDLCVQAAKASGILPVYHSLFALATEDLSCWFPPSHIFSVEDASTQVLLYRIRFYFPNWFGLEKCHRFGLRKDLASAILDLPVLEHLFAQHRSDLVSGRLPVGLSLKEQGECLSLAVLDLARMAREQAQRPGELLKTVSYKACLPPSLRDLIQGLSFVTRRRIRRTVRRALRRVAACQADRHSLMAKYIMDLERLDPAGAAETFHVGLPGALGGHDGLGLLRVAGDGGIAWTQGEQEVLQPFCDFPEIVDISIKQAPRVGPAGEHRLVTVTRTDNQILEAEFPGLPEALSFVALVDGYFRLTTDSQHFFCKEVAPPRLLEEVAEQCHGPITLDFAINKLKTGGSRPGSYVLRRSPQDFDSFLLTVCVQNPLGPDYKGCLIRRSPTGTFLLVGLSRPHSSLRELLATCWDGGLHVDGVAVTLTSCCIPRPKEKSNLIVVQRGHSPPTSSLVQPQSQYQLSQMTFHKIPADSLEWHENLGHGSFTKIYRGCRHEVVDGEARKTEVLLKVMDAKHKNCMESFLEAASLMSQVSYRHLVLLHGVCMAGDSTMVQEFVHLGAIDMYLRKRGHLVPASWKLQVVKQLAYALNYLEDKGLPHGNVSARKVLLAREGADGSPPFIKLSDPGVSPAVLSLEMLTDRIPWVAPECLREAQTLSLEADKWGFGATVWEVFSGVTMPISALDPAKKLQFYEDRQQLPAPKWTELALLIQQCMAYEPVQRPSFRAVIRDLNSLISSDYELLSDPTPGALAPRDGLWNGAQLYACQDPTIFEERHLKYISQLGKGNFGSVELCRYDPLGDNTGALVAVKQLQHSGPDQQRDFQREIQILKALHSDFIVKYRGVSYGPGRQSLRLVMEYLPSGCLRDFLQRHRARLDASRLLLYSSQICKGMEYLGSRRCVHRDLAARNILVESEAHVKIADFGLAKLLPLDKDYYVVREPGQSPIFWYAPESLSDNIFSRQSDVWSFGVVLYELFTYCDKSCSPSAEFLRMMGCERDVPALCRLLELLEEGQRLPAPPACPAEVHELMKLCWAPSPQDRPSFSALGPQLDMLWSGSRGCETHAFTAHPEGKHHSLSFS

[2] = molecular target: T2, JAK2 (Homo sapiens, UniProt O60674); test: Assay for JAK2 Inhibition (phosphorylation of FAM-labeled substrate, Caliper LC-3000); format: biochemical; conditions: −log10(IC50), IC50 is the molar concentration at 50% inhibition; read-out: JAK2 pIC50 (converted)
T2 construct: purchased Invitrogen
T2 sequence (O60674 whole entry): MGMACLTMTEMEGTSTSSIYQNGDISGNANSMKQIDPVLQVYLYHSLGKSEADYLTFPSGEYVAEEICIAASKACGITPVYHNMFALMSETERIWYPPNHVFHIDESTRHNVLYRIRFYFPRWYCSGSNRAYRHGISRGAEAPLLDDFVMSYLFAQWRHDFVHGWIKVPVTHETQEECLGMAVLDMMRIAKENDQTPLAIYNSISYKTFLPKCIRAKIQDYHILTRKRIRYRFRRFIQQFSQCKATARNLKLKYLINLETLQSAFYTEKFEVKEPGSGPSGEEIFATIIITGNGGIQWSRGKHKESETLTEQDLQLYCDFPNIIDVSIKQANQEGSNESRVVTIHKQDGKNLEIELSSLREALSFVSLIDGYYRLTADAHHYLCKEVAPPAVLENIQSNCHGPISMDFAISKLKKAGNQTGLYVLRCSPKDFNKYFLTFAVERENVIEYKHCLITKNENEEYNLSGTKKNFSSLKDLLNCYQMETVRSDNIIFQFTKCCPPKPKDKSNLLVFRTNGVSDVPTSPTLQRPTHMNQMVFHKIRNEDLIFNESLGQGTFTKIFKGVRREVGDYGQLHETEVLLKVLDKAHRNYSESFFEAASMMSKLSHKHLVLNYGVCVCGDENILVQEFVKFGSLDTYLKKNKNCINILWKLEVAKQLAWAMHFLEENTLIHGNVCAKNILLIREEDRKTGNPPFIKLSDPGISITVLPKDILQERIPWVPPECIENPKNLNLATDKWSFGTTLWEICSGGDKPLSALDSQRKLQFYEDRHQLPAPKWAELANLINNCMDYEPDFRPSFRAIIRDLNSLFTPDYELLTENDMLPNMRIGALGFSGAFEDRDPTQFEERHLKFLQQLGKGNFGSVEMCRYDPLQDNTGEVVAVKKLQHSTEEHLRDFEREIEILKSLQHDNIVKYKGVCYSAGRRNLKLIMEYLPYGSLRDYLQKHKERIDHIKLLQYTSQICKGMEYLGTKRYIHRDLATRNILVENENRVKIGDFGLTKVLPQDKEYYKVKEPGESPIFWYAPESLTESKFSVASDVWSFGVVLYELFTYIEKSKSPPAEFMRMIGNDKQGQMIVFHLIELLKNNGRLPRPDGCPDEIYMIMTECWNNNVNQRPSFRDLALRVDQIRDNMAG

Row | IC50 [1] | IC50 [2] | SMILES
1 | 126 nM | 794 nM | CC(C)C[C@H](C(=O)N1CCCC1)N1Cc2ccnc3[nH]cc(c23)C1=O [Example 21, (R)-4-(4-methyl-1-oxo-1-(pyrrolidin-1-yl)pentan-2-yl)-4,5-dihydropyrrolo[4,3,2-de][2,6]naphthyridin-3(1H)-one]
2 | 1.58 nM | 25.1 nM | Cc1cnc2[nH]cc3c2c1CN([C@@H](C(=O)N1CC(C#N)C1)C(C)C)C3=O [Example 88, (R)-1-(3-methyl-2-(6-methyl-3-oxopyrrolo[4,3,2-de][2,6]naphthyridin-4(1H,3H,5H)-yl)butanoyl)azetidine-3-carbonitrile]
3 | 251 nM | 5010 nM | CC[C@H](C(=O)NCC(C)C)N1Cc2ccnc3[nH]cc(c23)C1=O [Example 67, (R)—N-isobutyl-2-(3-oxopyrrolo[4,3,2-de][2,6]naphthyridin-4(1H,3H,5H)-yl)butanamide]
4 | 25.1 nM | 398 nM | CC(C)[C@H](C(=O)N1C[C@@H](F)C[C@H]1C#N)N1Cc2c(Cl)cnc3[nH]cc(c23)C1=O [Example 86, (2S,4S)-1-((R)-2-(6-chloro-3-oxopyrrolo[4,3,2-de][2,6]naphthyridin-4(1H,3H,5H)-yl)-3-methylbutanoyl)-4-fluoropyrrolidine-2-carbonitrile]
5 | 20000 nM | 20000 nM | CC[C@@H](C(=O)N1CCCC1)N1Cc2ccnc3[nH]cc(c23)C1=O [Example 18, (S)-4-(1-oxo-1-(pyrrolidin-1-yl)butan-2-yl)-4,5-dihydropyrrolo[4,3,2-de][2,6]naphthyridin-3(1H)-one]
6 | 10 nM | 126 nM | CC(C)(C)[C@H](C(=O)NC1CCCC1)N1Cc2ccnc3[nH]cc(c23)C1=O [Example 26, (R)—N-cyclopentyl-3,3-dimethyl-2-(3-oxopyrrolo[4,3,2-de][2,6]naphthyridin-4(1H,3H,5H)-yl)butanamide]
7 | 5.01 nM | 126 nM | CC(C)[C@H](C(=O)N1CC(C#N)C1)N1Cc2ccnc3[nH]cc(c23)C1=O [Example 81, (R)-1-(3-methyl-2-(3-oxopyrrolo[4,3,2-de][2,6]naphthyridin-4(1H,3H,5H)-yl)butanoyl)azetidine-3-carbonitrile]
8 | 10 nM | 200 nM | CC(C)[C@H](C(=O)NCC#N)N1Cc2c(Cl)cnc3[nH]cc(c23)C1=O [Example 32, (R)-2-(6-chloro-3-oxopyrrolo[4,3,2-de][2,6]naphthyridin-4(1H,3H,5H)-yl)-N-(cyanomethyl)-3-methylbutanamide]
9 | 126 nM | 2510 nM | CC(C)[C@H](C(=O)NC1CCS(=O)(=O)CC1)N1Cc2c(F)cnc3[nH]cc(c23)C1=O [Example 47, (R)—N-(1,1-dioxidotetrahydro-2H-thiopyran-4-yl)-2-(6-fluoro-3-oxopyrrolo[4,3,2-de][2,6]naphthyridin-4(1H,3H,5H)-yl)-3-methylbutanamide]
10 | 50.1 nM | 10 nM | CCC(=O)N1CCC(CC)(N2Cc3c[nH]c4nccc(c34)C2=O)CC1 [Example 16, 4-(4-ethyl-1-propionylpiperidin-4-yl)-3,4-dihydropyrrolo[4,3,2-de][2,6]naphthyridin-5(1H)-one]
11 | 126 nM | 1000 nM | CC(C)[C@H](C(=O)Nc1cccc(C#N)c1)N1Cc2c(Cl)cnc3[nH]cc(c23)C1=O [Example 36, (R)-2-(6-chloro-3-oxopyrrolo[4,3,2-de][2,6]naphthyridin-4(1H,3H,5H)-yl)-N-(3-cyanophenyl)-3-methylbutanamide]
12 | 1580 nM | 12600 nM | CC[C@H](C(=O)N1CCC(C(C)(C)O)CC1)N1Cc2ccnc3[nH]cc(c23)C1=O [Example 62, (R)-4-(1-(4-(2-hydroxypropan-2-yl)piperidin-1-yl)-1-oxobutan-2-yl)-4,5-dihydropyrrolo[4,3,2-de][2,6]naphthyridin-3(1 H)-one]
13 | 31.6 nM | 631 nM | CC(C)[C@H](C(=O)NC1CCCC1)N1Cc2ccnc3[nH]cc(c23)C1=O [Example 22, (R)—N-cyclopentyl-3-methyl-2-(3-oxopyrrolo[4,3,2-de][2,6]naphthyridin-4(1H,3H,5H)-yl)butanamide]
14 | 79.4 nM | 1580 nM | CC(C)[C@H](C(=O)NC1CCC(F)(F)C1)N1Cc2c(F)cnc3[nH]cc(c23)C1=O (stereo partly drawn) [Example 50, (2R)—N-(3,3-difluorocyclopentyl)-2-(6-fluoro-3-oxopyrrolo[4,3,2-de][2,6]naphthyridin-4(1H,3H,5H)-yl)-3-methylbutanamide]
15 | 15.8 nM | 251 nM | CC(C)[C@H](C(=O)N1CCC(C#N)CC1)N1Cc2c(Cl)cnc3[nH]cc(c23)C1=O [Example 34, (R)-1-(2-(6-chloro-3-oxopyrrolo[4,3,2-de][2,6]naphthyridin-4(1H,3H,5H)-yl)-3-methylbutanoyl)piperidine-4-carbonitrile]
